From US20110263693A1, “CELASTROL, GEDUNIN, AND DERIVATIVES THEREOF AS HSP90 INHIBITORS” (DANA-FARBER CANCER INSTITUTE, INC., priority 2006, published 2011)
Like-named read-outs stand apart in the source and are kept apart here.

Key:
gedunin signature = test: Connectivity Map query with the gedunin signature; format: cell-based, human; set-up: key to gedunin score (connectivity score): connectivity score, based on Kolmogorov-Smirnov statistic
From the text: (§1) Indeed, a major challenge in cell-based chemical biology and chemical genomics is the identification of compounds' targets (Gardner et al., 2003). We hypothesized that gene expression signatures could be used to identify compound action based on the similarity of such compound-induced signatures to signatures of existing drugs of known mechanism. We therefore employed a collection of gene expression profiles of drug-treated cell lines that was developed in our lab, termed the Connectivity Map (Lamb et al., 2006). This database comprises 453 genome-wide Affymetrix expression profiles derived from the treatment of human cell lines with 164 small molecules, primarily FDA-approved drugs. A 6 hr treatment time was chosen in an attempt to capture the primary, and potentially mechanistic, effects of the compounds rather than the downstream phenotypic consequences.
(§2) In order to use the Connectivity Map to gain insight into celastrol and gedunin function, we first defined a gene expression signature of celastrol and gedunin activity. The expression signatures of celastrol and gedunin were derived by expression profiling of RNA from LNCaP cells treated with celastrol (1.25 μM), gedunin (20 μM), and vehicle (DMSO) for 6 hr; signatures were defined using comparative marker selection to identify transcripts that distinguished between the compound- and vehicle-treated profiles by the signal-to-noise (SNR) metric. The enrichment of these signatures in the gene expression profiles of the Connectivity Map database was then assessed using a gene enrichment metric, the connectivity score, based on the Kolmogorov-Smirnov statistic (Lamb et al., 2003).
(§3) The celastrol and gedunin signatures were developed from RMA-processed microarray data from LNCaP cells treated with 1.25 μM celastrol or 20 μM gedunin for 6 hours. Comparative marker selection was used to identify markers that distinguished celastrol- and/or gedunin-treated samples from vehicle-treated samples by the median SNR (Golub et al., 1999). The top 50 markers that increased and decreased relative to vehicle-treated controls were used as the signatures.
(§4) The current version of the Connectivity Map data set (build01) contains genome-wide expression data for 453 treatment and vehicle control pairs, representing 164 distinct small molecules. Cell treatments and Affymetrix profiling were predominantly carried out in MCF7 cells with 6 hr treatments as detailed (Table 4) (Lamb et al., 2006). Enrichment of the induced and repressed genes of a signature within each Connectivity Map treatment profile was estimated with a metric based on the Kolmogorov-Smirnov statistic as described (Lamb et al., 2003, Lamb et al., 2006). Connectivity Map data are available at www.broad.mit.edu/cmap/ and GEO (accession number GSE5258).
(§5) For the celastrol and gedunin signatures, RMA-processed data was filtered and thresholded (min fold change=2, min absolute change=50, floor=10, ceiling=16000). Comparative marker selection (GenePattern) was used to identify markers that distinguished celastrol- and/or gedunin-treated samples from vehicle-treated samples by the median SNR. The top fifty markers that increased and decreased relative to vehicle treated controls were used as the celastrol, gedunin, or joint celastrol/gedunin signatures.
(§6) The current version of The Connectivity Map dataset (build01) contains genome-wide expression data for 453 treatment and vehicle control pairs, representing 164 distinct small molecules. Cell treatments were predominantly carried out in the MCF7 cell line for 6 h as detailed in Table 4. Affymetrix profiling was then carried out as described (Lamb et al., 2006).

celastrol signature = test: Connectivity Map query with the celastrol signature; format: cell-based, human; set-up: key to celastrol score (connectivity score): connectivity score, based on Kolmogorov-Smirnov statistic
From the text: as §1, §2, §3, §4, §5, §6

[1] = enrichment of the gedunin signature (20 μM gedunin at 6 hours, LNCaP) in the compound's Connectivity Map profiles, 6 hr treatment
[2] = enrichment of the celastrol signature (1.25 μM celastrol at 6 h, LNCaP) in the compound's Connectivity Map profiles, 6 hr treatment
[3] = rank by gedunin score among 164 Connectivity Map compounds
[4] = rank by celastrol score among 164 Connectivity Map compounds

O=C(O)Cc1ccccc1Nc1c(Cl)cccc1Cl [diclofenac]
gedunin score (connectivity score) (gedunin signature; [1]): −0.165 | celastrol score (connectivity score) (celastrol signature; [2]): −0.197

Nc1nc2nc[nH]c2c(=S)[nH]1 [tioguanine]
gedunin score (connectivity score) (gedunin signature; [1]): −0.613 | celastrol score (connectivity score) (celastrol signature; [2]): 0

CC[C@H]1/C=C/C=C/C[C@@H](C)[C@H](O)[C@@](C)(O)C(=O)[C@@H](C)[C@H](O)[C@@H](C)C(=O)[C@@H](C)[C@H](O)[C@@H](C)/C=C/C(=O)O[C@@H]2[C@H](C)[C@H](CC1)O[C@]1(CC[C@H](C)[C@H](C[C@@H](C)O)O1)[C@H]2C [oligomycin]
gedunin score (connectivity score) (gedunin signature; [1]): 0.305 | celastrol score (connectivity score) (celastrol signature; [2]): −0.491

CC(Cc1ccc(O)c(O)c1)C(C)Cc1ccc(O)c(O)c1 (stereo not drawn) [nordihydroguaiaretic acid]
gedunin score (connectivity score) (gedunin signature; [1]): 0.286 | celastrol score (connectivity score) (celastrol signature; [2]): 0.264

N=C(N)NC(N)=Nc1ccccc1 [phenyl biguanide]
gedunin score (connectivity score) (gedunin signature; [1]): 0 | celastrol score (connectivity score) (celastrol signature; [2]): 0

C=C[C@@]1(C)CC(=O)[C@]2(O)[C@@]3(C)[C@@H](O)CCC(C)(C)[C@@H]3[C@H](O)[C@H](OC(C)=O)[C@@]2(C)O1 [colforsin]
gedunin score (connectivity score) (gedunin signature; [1]): 0 | celastrol score (connectivity score) (celastrol signature; [2]): 0

CC/C(=C(\c1ccccc1)c1ccc(OCCN(C)C)cc1)c1ccccc1 [tamoxifen]
gedunin score (connectivity score) (gedunin signature; [1]): 0.216 | celastrol score (connectivity score) (celastrol signature; [2]): 0

[H]/N=C(/N)N/C(=N/[H])NCCc1ccccc1 [phenformin]
gedunin score (connectivity score) (gedunin signature; [1]): 0 | celastrol score (connectivity score) (celastrol signature; [2]): 0.355

COC(=O)CNC(=O)C(=O)OC [dimelhyloxalylglycine]
gedunin score (connectivity score) (gedunin signature; [1]): 0 | gedunin rank (gedunin signature; [3]): 119 | celastrol score (connectivity score) (celastrol signature; [2]): 0.326 | celastrol rank (celastrol signature; [4]): 44

C[C@H](CCC(=O)O)C[C@H](C)C[C@H](C)C(=O)/C=C(\O)[C@H](C)C[C@H](C)C/C=C/[C@@H](C)[C@@H](O)[C@@H](C)[C@@H](O)C[C@@H]1CC[C@@](C)([C@H]2CC[C@@](C)([C@@H](C)O)O2)O1 [ionomycin]
gedunin score (connectivity score) (gedunin signature; [1]): 0.129 | celastrol score (connectivity score) (celastrol signature; [2]): 0.556

NCCc1ccc(O)c(O)c1 [dopamine]
gedunin score (connectivity score) (gedunin signature; [1]): 0 | celastrol score (connectivity score) (celastrol signature; [2]): −0.596

Cn1cnc([N+](=O)[O-])c1Sc1ncnc2nc[nH]c12 [azathioprine]
gedunin score (connectivity score) (gedunin signature; [1]): 0.361 | celastrol score (connectivity score) (celastrol signature; [2]): 0.552

O=C(O)c1ccccc1Nc1ccccc1 [N-phenylanthranilic acid]
gedunin score (connectivity score) (gedunin signature; [1]): −0.472 | celastrol score (connectivity score) (celastrol signature; [2]): 0

CC/C=C\C/C=C\C/C=C\C/C=C\C/C=C\C/C=C\CCC(=O)OCC [docosahexaenoic acid ethyl ester]
gedunin score (connectivity score) (gedunin signature; [1]): 0.493 | gedunin rank (gedunin signature; [3]): 21 | celastrol score (connectivity score) (celastrol signature; [2]): 0.572 | celastrol rank (celastrol signature; [4]): 14

O=S(=O)([O-])[O-].[Cu+2] [copper sulfate]
gedunin rank (gedunin signature): 78 | gedunin score (connectivity score) (gedunin signature): 0.066 | celastrol rank (celastrol signature): 68 | celastrol score (connectivity score) (celastrol signature): 0.113

O=c1c(-c2ccc(O)cc2)coc2cc(O)cc(O)c12 [genistein]
gedunin score (connectivity score) (gedunin signature; [1]): 0.097 | celastrol score (connectivity score) (celastrol signature; [2]): 0.153

O=C(O)CCc1nc(-c2ccccc2)c(-c2ccccc2)o1 [oxaprozin]
gedunin score (connectivity score) (gedunin signature; [1]): 0.562 | celastrol score (connectivity score) (celastrol signature; [2]): 0.445

C[C@]12CC[C@@H]3c4ccc(O)cc4CC[C@H]3[C@@H]1CC[C@H]2O [alpha-estradiol]
gedunin score (connectivity score) (gedunin signature; [1]): 0.045 | celastrol score (connectivity score) (celastrol signature; [2]): −0.066

CC(=O)Oc1ccccc1C(=O)O [acetylsalicylic acid]
gedunin score (connectivity score) (gedunin signature; [1]): 0 | celastrol score (connectivity score) (celastrol signature; [2]): 0.154

CC1=C(CC(=O)O)c2cc(F)ccc2/C1=C\c1ccc([S+](C)[O-])cc1 (stereo not drawn) [sulindac]
gedunin score (connectivity score) (gedunin signature; [1]): 0.177 | celastrol score (connectivity score) (celastrol signature; [2]): 0.207

COC(=O)Nc1nc2ccc(C(=O)c3cccs3)cc2[nH]1 [nocodazole]
gedunin score (connectivity score) (gedunin signature; [1]): 0.436 | celastrol score (connectivity score) (celastrol signature; [2]): 0.517

CS(=O)(=O)c1ccc(C2=C(c3ccccc3)C(=O)OC2)cc1 [rofecoxib]
gedunin score (connectivity score) (gedunin signature; [1]): 0.148 | celastrol score (connectivity score) (celastrol signature; [2]): 0.088

Cc1ccc(-c2cc(C(F)(F)F)nn2-c2ccc(S(N)(=O)=O)cc2)cc1 [celecoxib]
gedunin score (connectivity score) (gedunin signature; [1]): 0.114 | celastrol score (connectivity score) (celastrol signature; [2]): −0.01

CCOC(=O)C1=C(C)NC(=S)NC1c1cccc(O)c1 (stereo not drawn) [monastrol]
gedunin score (connectivity score) (gedunin signature; [1]): 0.069 | celastrol score (connectivity score) (celastrol signature; [2]): 0.226

CC[C@@]1([C@@H]2O[C@@H]([C@H]3O[C@@](O)(CO)[C@H](C)C[C@@H]3C)C[C@@H]2C)CC[C@H]([C@]2(C)CC[C@]3(C[C@H](O)[C@@H](C)[C@@H]([C@@H](C)[C@@H](OC)[C@H](C)C(=O)O)O3)O2)O1 [monensin]
gedunin score (connectivity score) (gedunin signature; [1]): 0 | celastrol score (connectivity score) (celastrol signature; [2]): 0.454

COC(=O)[C@@H]1[C@H]2C[C@H]3c4[nH]c5ccccc5c4CCN3C[C@@H]2CC[C@@H]1O [yohimbine]
gedunin score (connectivity score) (gedunin signature; [1]): 0 | celastrol score (connectivity score) (celastrol signature; [2]): 0

O=C(/C=C/c1ccc(O)c(O)c1)c1ccc(O)cc1O [butein]
gedunin score (connectivity score) (gedunin signature; [1]): 0.45 | celastrol score (connectivity score) (celastrol signature; [2]): 0.295

Clc1ccccc1C(c1ccccc1)(c1ccccc1)n1ccnc1 [clotrimazole]
gedunin score (connectivity score) (gedunin signature; [1]): 0.577 | celastrol score (connectivity score) (celastrol signature; [2]): 0.557

C[C@]12CC[C@@H]3c4ccc(O)cc4CC[C@H]3[C@@H]1CC[C@@H]2O [estradiol]
gedunin score (connectivity score) (gedunin signature; [1]): −0.166 | celastrol score (connectivity score) (celastrol signature; [2]): 0.017

CCCNC(=O)NS(=O)(=O)c1ccc(Cl)cc1 [chlorpropamide]
gedunin score (connectivity score) (gedunin signature; [1]): 0 | celastrol score (connectivity score) (celastrol signature; [2]): 0

CN(C)C(=N)N=C(N)N [metformin]
gedunin score (connectivity score) (gedunin signature; [1]): −0.108 | celastrol score (connectivity score) (celastrol signature; [2]): −0.029

CN[C@@H]1C[C@H]2O[C@@](C)([C@@H]1OC)n1c3ccccc3c3c4c(c5c6ccccc6n2c5c31)C(=O)NC4 [staurosporine]
gedunin score (connectivity score) (gedunin signature; [1]): 0 | celastrol score (connectivity score) (celastrol signature; [2]): 0.092

OCCN1CCN(CCCN2c3ccccc3Sc3ccc(C(F)(F)F)cc32)CC1 [fluphenazine]
gedunin score (connectivity score) (gedunin signature; [1]): 0.34 | celastrol score (connectivity score) (celastrol signature; [2]): 0.481

C[C@H]1c2cccc(O)c2C(=O)C2=C(O)[C@]3(O)C(=O)C(C(N)=O)=C(O)[C@@H](N(C)C)[C@@H]3[C@@H](O)[C@@H]21 [doxycycline]
gedunin score (connectivity score) (gedunin signature; [1]): 0 | celastrol score (connectivity score) (celastrol signature; [2]): 0

COc1cc(/C=C(\C#N)C(N)=O)cc(CSc2nc3ccccc3s2)c1O [tyrphostin AG-825]
gedunin score (connectivity score) (gedunin signature; [1]): 0 | gedunin rank (gedunin signature; [3]): 141 | celastrol score (connectivity score) (celastrol signature; [2]): 0 | celastrol rank (celastrol signature; [4]): 137

CN(C)CCC=C1c2ccccc2CCc2ccccc21 [amitriptyline]
gedunin score (connectivity score) (gedunin signature; [1]): 0 | celastrol score (connectivity score) (celastrol signature; [2]): 0

S=c1nc[nH]c2nc[nH]c12 [mercaptopurine]
gedunin score (connectivity score) (gedunin signature; [1]): 0.21 | celastrol score (connectivity score) (celastrol signature; [2]): −0.121

CCCc1c(OCCCCc2nnn[nH]2)ccc(C(C)=O)c1O [tomelukast]
gedunin score (connectivity score) (gedunin signature; [1]): 0 | celastrol score (connectivity score) (celastrol signature; [2]): 0.388

CC(=O)O[C@H]1C(=O)[C@@]2(C)[C@H]([C@H](OC(=O)c3ccccc3)[C@]3(O)C[C@H](OC(=O)[C@H](O)[C@@H](NC(=O)c4ccccc4)c4ccccc4)C(C)=C1C3(C)C)[C@]1(OC(C)=O)CO[C@@H]1C[C@@H]2O [paclitaxel]
gedunin score (connectivity score) (gedunin signature; [1]): 0 | celastrol score (connectivity score) (celastrol signature; [2]): 0.319

C/C(=C\c1ccc(C(=O)O)cc1)c1ccc2c(c1)C(C)(C)CCC2(C)C [TTNPB]
gedunin score (connectivity score) (gedunin signature; [1]): 0.095 | gedunin rank (gedunin signature; [3]): 74 | celastrol score (connectivity score) (celastrol signature; [2]): 0 | celastrol rank (celastrol signature; [4]): 97
